According to ChEMBL document CHEMBL1137686, “Synthesis and anticonvulsant activity of new N-[(4-arylpiperazin-1-yl)-alkyl] derivatives of 3-phenyl-pyrrolidine-2,5-dione” (Eur J Med Chem, 2009):
Activity calls are given as the source filed them. The calls are words filed in the database; no cut-off is given here.

Legend:
[1] = system: Mus musculus; assay: Anticonvulsant activity in ip dosed mouse assessed as inhibition of maximal electroshock-induced seizures; assay type: functional
[2] = system: Mus musculus; assay: Neurotoxicity in CF1 albino mouse assessed as motor impairment at 30 mg/kg, po after 0.25 hrs by rotarod test; assay type: toxicity, organism-based; set-up: dose 30 mg/kg, route oral; settings: in vivo
[3] = system: Mus musculus; assay: Anticonvulsant activity in ip dosed CF1 albino mouse assessed as inhibition of maximal electroshock-induced seizures after 0.5 hrs; assay type: functional
[4] = system: Mus musculus; assay: Neurotoxicity in CF1 albino mouse assessed as ability to maintain equilibrium for 1 min on […] at 300 mg/kg, ip after 4 hrs by rotarod test; assay type: toxicity, organism-based; set-up: dose 300 mg/kg, route intraperitoneal; settings: in vivo
[5] = system: Mus musculus; assay: Neurotoxicity in CF1 albino mouse assessed as motor impairment at 30 mg/kg, ip after 4 hrs by rotarod test; assay type: toxicity, organism-based; set-up: dose 30 mg/kg, route intraperitoneal; settings: in vivo
[6] = system: Mus musculus; assay: Anticonvulsant activity in CF1 albino mouse assessed as protection against maximal electroshock-induced seizures at 30 mg/kg, po after 0.25 hrs; assay type: functional
[7] = system: Mus musculus; assay: Neurotoxicity in CF1 albino mouse assessed as motor impairment at 30 mg/kg, po after 4 hrs by rotarod test; assay type: toxicity, organism-based; set-up: dose 30 mg/kg, route oral; settings: in vivo
[8] = system: Mus musculus; assay: Anticonvulsant activity in CF1 albino mouse assessed as protection against maximal electroshock-induced seizures at 30 mg/kg, po after 0.5 hrs; assay type: functional
[9] = system: Mus musculus; assay: Neurotoxicity in CF1 albino mouse assessed as motor impairment at 30 mg/kg, po after 1 hr by rotarod test; assay type: toxicity, organism-based; set-up: dose 30 mg/kg, route oral; settings: in vivo
[10] = system: Mus musculus; assay: Anticonvulsant activity in CF1 albino mouse assessed as protection against maximal electroshock-induced seizures at 30 mg/kg, po after 4 hrs; assay type: functional
[11] = system: Mus musculus; assay: Anticonvulsant activity in ip dosed CF1 albino mouse assessed as inhibition of maximal electroshock-induced seizures after 4 hrs; assay type: functional
[12] = system: Mus musculus; assay: Anticonvulsant activity in CF1 albino mouse assessed as protection against maximal electroshock-induced seizures at 30 mg/kg, ip after 1 hr; assay type: functional
[13] = system: Mus musculus; assay: Anticonvulsant activity in CF1 albino mouse assessed as protection against maximal electroshock-induced seizures at 30 mg/kg, ip after 2 hrs; assay type: functional
[14] = system: Mus musculus; assay: Anticonvulsant activity in CF1 albino mouse assessed as protection against maximal electroshock-induced seizures at 30 mg/kg, po after 2 hrs; assay type: functional
[15] = system: Mus musculus; assay: Neurotoxicity in CF1 albino mouse assessed as motor impairment at 30 mg/kg, ip after 0.25 hrs by rotarod test; assay type: toxicity, organism-based; set-up: dose 30 mg/kg, route intraperitoneal; settings: in vivo
[16] = system: Mus musculus; assay: Neurotoxicity in ip dosed CF1 albino mouse assessed as ability to maintain equilibrium for 1 min on […] after 0.5 hrs by rotarod test; assay type: toxicity, organism-based; settings: in vivo
[17] = system: Mus musculus; assay: Anticonvulsant activity in CF1 albino mouse assessed as protection against maximal electroshock-induced seizures at 30 mg/kg, ip after 4 hrs; assay type: functional
[18] = system: Mus musculus; assay: Anticonvulsant activity in CF1 albino mouse assessed as protection against maximal electroshock-induced seizures at 30 mg/kg, ip after 0.5 hrs; assay type: functional
[19] = system: Mus musculus; assay: Anticonvulsant activity in CF1 albino mouse assessed as protection against maximal electroshock-induced seizures at 30 mg/kg, po after 1 hr; assay type: functional
[20] = system: Mus musculus; assay: Neurotoxicity in CF1 albino mouse assessed as motor impairment at 30 mg/kg, ip after 0.5 hrs by rotarod test; assay type: toxicity, organism-based; set-up: dose 30 mg/kg, route intraperitoneal; settings: in vivo
[21] = system: Mus musculus; assay: Neurotoxicity in CF1 albino mouse assessed as motor impairment at 30 mg/kg, po after 2 hrs by rotarod test; assay type: toxicity, organism-based; set-up: dose 30 mg/kg, route oral; settings: in vivo
[22] = system: Mus musculus; assay: Anticonvulsant activity in CF1 albino mouse assessed as protection against maximal electroshock-induced seizures at 30 mg/kg, ip after 0.25 hrs; assay type: functional
[23] = system: Mus musculus; assay: Neurotoxicity in CF1 albino mouse assessed as motor impairment at 30 mg/kg, po after 0.5 hrs by rotarod test; assay type: toxicity, organism-based; set-up: dose 30 mg/kg, route oral; settings: in vivo
[24] = system: Mus musculus; assay: Neurotoxicity in CF1 albino mouse assessed as death at 300 mg/kg, ip after 0.5 hrs by rotarod test; assay type: toxicity, organism-based; set-up: dose 300 mg/kg, route intraperitoneal; settings: in vivo
[25] = system: Mus musculus; assay: Neurotoxicity in CF1 albino mouse assessed as occurance of tremors at 300 mg/kg, ip after 0.5 hrs by rotarod test; assay type: toxicity, organism-based; set-up: dose 300 mg/kg, route intraperitoneal; settings: in vivo
[26] = system: Mus musculus; assay: Neurotoxicity in CF1 albino mouse assessed as ability to grasp rotarod at 300 mg/kg, ip after 0.5 hrs by rotarod test; assay type: toxicity, organism-based; set-up: dose 300 mg/kg, route intraperitoneal; settings: in vivo
[27] = system: Mus musculus; assay: Anticonvulsant activity in ip dosed CF1 albino mouse assessed as inhibition of maximal electroshock-induced seizures; assay type: functional
[28] = species on record: Rattus norvegicus; assay: Protective index, ratio of TD50 for neurotoxicity in rat to ED50 for inhibition of maximal electroshock-induced seizures in rat; assay type: functional
[29] = system: Rattus norvegicus; assay: Anticonvulsant activity against maximal electroshock-induced seizures in po dosed rat assessed as time to peak effect; assay type: functional
[30] = Neurotoxicity in po dosed rat assessed as ability to maintain equilibrium for 1 min on […] by rotarod test; assay type: toxicity, organism-based; settings: in vivo
[31] = system: Rattus norvegicus; assay: Anticonvulsant activity in po dosed rat assessed as inhibition of subcutaneous pentylenetetrazole-induced seizures; assay type: functional
[32] = Neurotoxicity in ip dosed CF1 albino mouse assessed as ability to maintain equilibrium for 1 min on […] by rotarod test; assay type: toxicity, organism-based; settings: in vivo
[33] = system: Mus musculus; assay: Anticonvulsant activity against maximal electroshock-induced seizures in ip dosed CF1 albino mouse assessed as time to peak effect; assay type: functional
[34] = system: Mus musculus; assay: Anticonvulsant activity in ip dosed CF1 albino mouse assessed as inhibition of subcutaneous pentylenetetrazole-induced seizures; assay type: functional
[35] = species on record: Mus musculus; assay: Protective index, ratio of TD50 for neurotoxicity in CF1 albino mouse to ED50 for inhibition of maximal electroshock-induced seizures in CF1 albino mouse; assay type: functional
[36] = system: Mus musculus; assay: Neurotoxicity in ip dosed CF1 albino mouse assessed as ability to maintain equilibrium for 1 min on […] after 4 hrs by rotarod test; assay type: toxicity, organism-based; settings: in vivo
[37] = system: Mus musculus; assay: Anticonvulsant activity in CF1 albino mouse assessed as inhibition of maximal electroshock-induced seizures at 300 mg/kg, ip after 4 hrs; assay type: functional, organism-based; set-up: dose 300 mg/kg
[38] = system: Mus musculus; assay: Neurotoxicity in CF1 albino mouse assessed as muscle spasm at 300 mg/kg, po after 0.5 hrs by rotarod test; assay type: toxicity, organism-based, Muscle tissue; set-up: dose 300 mg/kg, route oral; settings: in vivo
[39] = system: Mus musculus; assay: Anticonvulsant activity in CF1 albino mouse assessed as inhibition of maximal electroshock-induced seizures at 300 mg/kg, ip after 0.5 hrs; assay type: functional, organism-based; set-up: dose 300 mg/kg
[40] = system: Mus musculus; assay: Anticonvulsant activity in CF1 albino mouse assessed as inhibition of subcutaneous pentylenetetrazole-induced seizures at 100 mg/kg, ip after 4 hrs; assay type: functional, organism-based; set-up: dose 100 mg/kg
[41] = system: Mus musculus; assay: Neurotoxicity in CF1 albino mouse assessed as occurance of tremors at 300 mg/kg, ip after 4 hrs by rotarod test; assay type: toxicity, organism-based; set-up: dose 300 mg/kg, route intraperitoneal; settings: in vivo
[42] = system: Mus musculus; assay: Toxicity in CF1 albino mouse assessed as myoclonic jerks at 100 mg/kg, ip after 4 hrs; assay type: organism-based; set-up: dose 100 mg/kg, route intraperitoneal; settings: in vivo
[43] = system: Mus musculus; assay: Toxicity in CF1 albino mouse assessed as myoclonic jerks at 300 mg/kg, ip after 4 hrs; assay type: organism-based; set-up: dose 300 mg/kg, route intraperitoneal; settings: in vivo
[44] = system: Mus musculus; assay: Anticonvulsant activity in CF1 albino mouse assessed as inhibition of subcutaneous pentylenetetrazole-induced seizures at 300 mg/kg, ip after 4 hrs; assay type: functional, organism-based; set-up: dose 300 mg/kg
[45] = system: Mus musculus; assay: Neurotoxicity in CF1 albino mouse assessed as motor impairment at 30 mg/kg, ip after 2 hrs by rotarod test; assay type: toxicity, organism-based; set-up: dose 30 mg/kg, route intraperitoneal; settings: in vivo
[46] = system: Mus musculus; assay: Neurotoxicity in CF1 albino mouse assessed as ability to maintain equilibrium for 1 min on […] at 300 mg/kg, ip after 0.5 hrs by rotarod test; assay type: toxicity, organism-based; set-up: dose 300 mg/kg, route intraperitoneal; settings: in vivo
[47] = system: Mus musculus; assay: Neurotoxicity in CF1 albino mouse assessed as motor impairment at 30 mg/kg, ip after 1 hr by rotarod test; assay type: toxicity, organism-based; set-up: dose 30 mg/kg, route intraperitoneal; settings: in vivo

Cc1cccc(N2CCN(CCCN3C(=O)CC(c4ccccc4Cl)C3=O)CC2)c1 (stereo not given)
Activity [1]: 120 mg/kg

Cc1ccccc1C1CC(=O)N(CN2CCN(c3cccc(C(F)(F)F)c3)CC2)C1=O (stereo not given)
Activity [2]: 50%
Activity [3]: 30 mg/kg
Activity [4]: Non-toxic
Activity [5]: Non-toxic
Activity [6]: inactive
Activity [7]: Non-toxic
Activity [8]: inactive
Activity [9]: Non-toxic
Activity [10]: 50%
Activity [11]: 30 mg/kg
Activity ([12]; route intraperitoneal): 100%
Activity ([13]; route intraperitoneal): 50%
Activity [14]: 25%
Activity [15]: Toxic
Activity [16]: 300 mg/kg
Activity ([17]; route intraperitoneal): 50%
Activity ([18]; route intraperitoneal): 50%
Activity [19]: 50%
Activity [20]: Toxic
Activity [21]: Non-toxic
Activity ([22]; route intraperitoneal): 50%
Activity [23]: 25%
Activity [24]: Toxic
Activity [25]: Toxic
Activity [26]: Toxic

O=C1CC2(CCc3ccccc3C2)C(=O)N1CCCN1CCN(c2cccc(C(F)(F)F)c2)CC1 (stereo not given)
ED50 ([1]; Mus musculus, ip): 23 mg/kg

O=C1NC(=O)C(c2ccccc2)(c2ccccc2)N1 [PHENYTOIN]
Activity [3]: 30 mg/kg
ED50 [27]: 5.32 mg/kg
Ratio TD50/ED50 [28]: >21.6
Activity [8]: Active
Time [29]: 2 h
TD50 at 1 min [30]: > 500 mg/kg
Activity [11]: 30 mg/kg
ED50 [31]: > 500 mg/kg
Activity [16]: 100 mg/kg
TD50 at 1 min [32]: 41.2 mg/kg
Time [33]: 1 h
ED50 [34]: > 500 mg/kg
Ratio TD50/ED50 [35]: 6.52
Activity [36]: 100 mg/kg

COc1ccccc1N1CCN(CCN2C(=O)CC(c3ccccc3C(F)(F)F)C2=O)CC1 (stereo not given)
Activity [4]: Non-toxic
Activity [37]: inactive
Activity [38]: Toxic
Activity [16]: 300 mg/kg
Activity [39]: inactive
Activity [26]: Toxic

COc1ccccc1N1CCN(CN2C(=O)CC(c3ccccc3C(F)(F)F)C2=O)CC1 (stereo not given)
Activity [3]: 300 mg/kg
Activity [40]: Active
Activity [41]: Toxic
Activity [11]: 300 mg/kg
Activity [16]: 100 mg/kg
Activity [42]: Toxic
Activity [43]: Toxic
Activity [44]: Active
Activity [36]: 100 mg/kg

Cc1ccccc1C1CC(=O)N(CCN2CCN(c3cccc(Cl)c3)CC2)C1=O (stereo not given)
Activity [2]: Non-toxic
Activity [45]: Non-toxic
Activity [4]: Non-toxic
Activity [5]: Non-toxic
Activity [6]: inactive
Activity [7]: Non-toxic
Activity [8]: inactive
Activity [9]: Non-toxic
Activity [10]: 50%
Activity [11]: 100 mg/kg
Activity [46]: Non-toxic
Activity [12]: inactive
Activity [13]: inactive
Activity [14]: inactive
Activity [15]: Non-toxic
Activity [17]: inactive
Activity [18]: inactive
Activity [19]: 25%
Activity [20]: Non-toxic
Activity [21]: Non-toxic
Activity [22]: inactive
Activity [23]: Non-toxic
Activity [47]: Non-toxic
Activity [39]: inactive
